This passage reports EC50 results from patent US12570642B2, “GLP-IR modulating compounds” (Gilead Sciences, Inc., priority 2021, dated 2026).

Sequence of GLP-1R (P43220 24-463): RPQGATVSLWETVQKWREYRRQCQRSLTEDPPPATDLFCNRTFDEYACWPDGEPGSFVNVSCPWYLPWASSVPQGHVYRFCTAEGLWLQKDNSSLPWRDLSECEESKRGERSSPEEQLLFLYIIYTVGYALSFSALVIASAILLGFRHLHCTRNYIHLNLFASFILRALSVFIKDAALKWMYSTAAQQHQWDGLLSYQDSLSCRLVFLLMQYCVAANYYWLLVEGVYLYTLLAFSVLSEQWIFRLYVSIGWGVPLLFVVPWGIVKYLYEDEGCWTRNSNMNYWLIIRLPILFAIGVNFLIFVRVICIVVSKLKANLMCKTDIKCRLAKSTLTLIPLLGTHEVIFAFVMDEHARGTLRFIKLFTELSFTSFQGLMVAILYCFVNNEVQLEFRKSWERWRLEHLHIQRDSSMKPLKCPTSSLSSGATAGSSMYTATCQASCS

The assay has as its target GLP-1R (Homo sapiens, UniProt P43220). Description: GLP-1R Activation - cAMP Assay. The assay is classed as cell-based. The note with it: cAMP increase in CHO cells stably expressing GLP-1R; each compound run on one of the two cAMP assays (Assay 1 or Assay 2, not specified). The method, boiled down:
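CHO cells stably expressing GLP-1R, plated at 1,000 cells/well overnight, then equilibrated 1 h in HBSS with 20 mM Hepes and 0.1% BSA. Agonist added as 10-point dose response for 30 min at 37 °C. cAMP measured by HTRF (Cisbio Gs Dynamic kit); EC50 from sigmoidal fit.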
(In general: Cyclic AMP is a second messenger, typically raised through Gs and lowered through Gi signalling.)
In general, EC50 refers to the concentration needed to bring the measured effect to its halfway point. Lower therefore signals higher potency in that assay. Compound `CC1(C)COC[C@H]1n1c(Cc2ccc(-c3ccc(F)c(OCc4ccc(C#N)cc4F)n3)cc2)nc2ccc(C(=O)O)cc21` [Example 277, (S)-2-(4-(6-((4-cyano-2-fluorobenzyl)oxy)-5-fluoropyridin-2-yl)benzyl)-1-(4,4-dimethyltetrahydrofuran-3-yl)-1H-benzo[d]imidazole-6-carboxylic acid] showed a half-maximal effective concentration (EC50) of 0.34 nM.
`Cc1cc(Cc2nc3ccc(C(=O)O)cc3n2[C@@H]2COCC2(C)C)c(F)cc1-c1cccc(OCc2ccc(C#N)cc2F)n1` [Example 278, (S)-2-(4-(6-((4-cyano-2-fluorobenzyl)oxy)pyridin-2-yl)-2-fluoro-5-methylbenzyl)-1-(4,4-dimethyltetrahydrofuran-3-yl)-1H-benzo[d]imidazole-6-carboxylic acid] registered an EC50 of 0.085 nM.
Regarding `Cc1cc(Cc2nc3ccc(C(=O)O)cc3n2[C@@H]2COCC2(C)C)c(F)cc1-c1ccc(F)c(OCc2ccc(C#N)cc2F)n1` [Example 279, (S)-2-(4-(6-((4-cyano-2-fluorobenzyl)oxy)-5-fluoropyridin-2-yl)-2-fluoro-5-methylbenzyl)-1-(4,4-dimethyltetrahydrofuran-3-yl)-1H-benzo[d]imidazole-6-carboxylic acid], the response was half-maximal at 0.195 nM (EC50).
For the compound `Cc1cc(Cc2nc3ccc(C(=O)O)cc3n2[C@@H]2COCC2(C)C)c(F)cc1-c1cccc(OCc2ccc(Cl)cc2F)n1` [Example 280, (S)-2-(4-(6-((4-chloro-2-fluorobenzyl)oxy)pyridin-2-yl)-2-fluoro-5-methylbenzyl)-1-(4,4-dimethyltetrahydrofuran-3-yl)-1H-benzo[d]imidazole-6-carboxylic acid], the concentration giving a half-maximal response (EC50) came out at 0.165 nM.
In the case of `COCCn1c(Cc2c(F)cc(-c3cccc(OCc4ccc(C#N)cc4)n3)c(F)c2F)nc2ccc(C(=O)O)cc21` [Example 281, 2-(4-(6-((4-cyanobenzyl)oxy)pyridin-2-yl)-2,3,6-trifluorobenzyl)-1-(2-methoxyethyl)-1H-benzo[d]imidazole-6-carboxylic acid], the EC50 was found to be 0.655 nM.
As for `CC1(C)COC[C@H]1n1c(Cc2c(F)cc(-c3ccc(F)c(OCc4ccc(Cl)cc4)n3)c(F)c2F)nc2ccc(C(=O)O)cc21` [Example 282, (S)-2-(4-(6-((4-chlorobenzyl)oxy)-5-fluoropyridin-2-yl)-2,3,6-trifluorobenzyl)-1-(4,4-dimethyltetrahydrofuran-3-yl)-1H-benzo[d]imidazole-6-carboxylic acid], the EC50 was 0.192 nM.
`CC1(C)COC[C@H]1n1c(Cc2c(F)cc(-c3ccc(F)c(OCc4ccc(C#N)cc4)n3)c(F)c2F)nc2ccc(C(=O)O)cc21` [Example 283, (S)-2-(4-(6-((4-cyanobenzyl)oxy)-5-fluoropyridin-2-yl)-2,3,6-trifluorobenzyl)-1-(4,4-dimethyltetrahydrofuran-3-yl)-1H-benzo[d]imidazole-6-carboxylic acid] returned a concentration for a half-maximal effect (EC50) of 0.477 nM.
The compound `Cc1cc(Cc2nc3ccc(C(=O)O)cc3n2[C@@H]2COCC2(C)C)c(F)cc1-c1ccnc(OCc2ccc(Cl)cc2F)n1` [Example 284, (S)-2-(4-(2-((4-chloro-2-fluorobenzyl)oxy)pyrimidin-4-yl)-2-fluoro-5-methylbenzyl)-1-(4,4-dimethyltetrahydrofuran-3-yl)-1H-benzo[d]imidazole-6-carboxylic acid] showed a concentration giving a half-maximal response (EC50) of 0.135 nM.
For the compound `CC1(C)COC[C@H]1n1c(Cc2cc(F)c(-c3ccnc(OCc4ccc(C(F)(F)F)cc4F)n3)cc2F)nc2ccc(C(=O)O)cc21` [Example 285, (S)-2-(2,5-difluoro-4-(2-((2-fluoro-4-(trifluoromethyl)benzyl)oxy)pyrimidin-4-yl)benzyl)-1-(4,4-dimethyltetrahydrofuran-3-yl)-1H-benzo[d]imidazole-6-carboxylic acid], the midpoint of the response, the EC50, lay at 0.096 nM.
`Cc1ccc(COc2cccc(-c3cc(F)c(Cc4nc5ccc(C(=O)O)cc5n4C4COCC4(C)C)cc3F)n2)c(Cl)n1` (stereo not shown) [Example 286, 2-(4-(6-((2-chloro-6-methylpyridin-3-yl)methoxy)pyridin-2-yl)-2,5-difluorobenzyl)-1-(4,4-dimethyltetrahydrofuran-3-yl)-1H-benzo[d]imidazole-6-carboxylic acid] displayed a concentration for a half-maximal effect (EC50) of 0.099 nM.
